Experimental findings from patent publication US9649309B2 (priority 2014, dated 2017) are described below.

One test has as its target Tyro3 (Homo sapiens (Human), UniProt Q06418). The conditions noted are these: read-out: IC50 Tyro3.
A further test addresses Axl (Homo sapiens (Human), UniProt P30530). The conditions noted are these: read-out: IC50 Axl.

Axl, sequence (P30530 26-894 limits assumed): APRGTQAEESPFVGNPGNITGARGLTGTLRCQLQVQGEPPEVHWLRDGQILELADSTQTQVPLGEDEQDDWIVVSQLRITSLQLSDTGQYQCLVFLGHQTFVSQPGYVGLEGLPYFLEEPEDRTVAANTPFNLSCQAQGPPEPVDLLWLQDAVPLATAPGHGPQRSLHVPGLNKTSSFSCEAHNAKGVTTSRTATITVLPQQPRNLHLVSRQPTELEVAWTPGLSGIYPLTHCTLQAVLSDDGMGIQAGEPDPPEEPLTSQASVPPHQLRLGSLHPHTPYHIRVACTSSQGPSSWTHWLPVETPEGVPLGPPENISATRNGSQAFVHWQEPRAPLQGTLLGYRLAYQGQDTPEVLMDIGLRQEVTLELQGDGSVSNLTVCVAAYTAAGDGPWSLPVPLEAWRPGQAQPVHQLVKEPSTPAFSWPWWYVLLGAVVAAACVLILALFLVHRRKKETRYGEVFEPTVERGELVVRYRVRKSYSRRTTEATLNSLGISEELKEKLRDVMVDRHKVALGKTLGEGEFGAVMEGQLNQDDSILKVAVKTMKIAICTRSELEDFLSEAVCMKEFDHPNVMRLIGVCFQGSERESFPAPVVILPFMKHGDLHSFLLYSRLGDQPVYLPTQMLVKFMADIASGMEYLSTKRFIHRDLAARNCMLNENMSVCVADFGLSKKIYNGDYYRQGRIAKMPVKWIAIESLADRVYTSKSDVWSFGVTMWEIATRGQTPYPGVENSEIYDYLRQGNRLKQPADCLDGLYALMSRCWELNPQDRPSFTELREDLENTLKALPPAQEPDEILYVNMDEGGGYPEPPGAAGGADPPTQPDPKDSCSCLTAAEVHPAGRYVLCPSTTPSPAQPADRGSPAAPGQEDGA
Tyro3, sequence (Q06418 41-890 limits assumed): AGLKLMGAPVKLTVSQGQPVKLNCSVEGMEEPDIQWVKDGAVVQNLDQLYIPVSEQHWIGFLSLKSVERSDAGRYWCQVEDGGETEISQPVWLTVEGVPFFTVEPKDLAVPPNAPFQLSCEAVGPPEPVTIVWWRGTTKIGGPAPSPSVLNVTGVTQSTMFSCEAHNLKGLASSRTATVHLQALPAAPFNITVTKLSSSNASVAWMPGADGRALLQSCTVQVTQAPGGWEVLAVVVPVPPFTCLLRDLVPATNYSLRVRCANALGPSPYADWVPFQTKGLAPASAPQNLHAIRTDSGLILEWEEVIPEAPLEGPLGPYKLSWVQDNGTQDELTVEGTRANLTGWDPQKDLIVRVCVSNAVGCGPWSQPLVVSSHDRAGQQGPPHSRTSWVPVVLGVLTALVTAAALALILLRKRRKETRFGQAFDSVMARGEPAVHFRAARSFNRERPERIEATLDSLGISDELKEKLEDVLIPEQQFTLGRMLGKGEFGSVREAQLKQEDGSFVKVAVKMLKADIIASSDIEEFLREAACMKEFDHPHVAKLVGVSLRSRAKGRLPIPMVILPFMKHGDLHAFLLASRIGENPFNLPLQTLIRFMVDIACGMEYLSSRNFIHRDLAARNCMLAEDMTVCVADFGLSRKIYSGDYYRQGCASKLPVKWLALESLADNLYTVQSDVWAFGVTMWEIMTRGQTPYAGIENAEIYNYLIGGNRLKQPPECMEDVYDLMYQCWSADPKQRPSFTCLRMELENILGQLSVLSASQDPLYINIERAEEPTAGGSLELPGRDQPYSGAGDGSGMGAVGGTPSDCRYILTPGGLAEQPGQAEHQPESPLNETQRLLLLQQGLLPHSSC

As a reminder, the IC50 is the concentration that inhibits the measured activity by half. On to `CCCCNc1ncc(-c2ccc(N3CCN(C(=O)OC(C)(C)C)CC3)nn2)c(N[C@H]2CC[C@H](O)CC2)n1` [UNC3071A], for which the results for the IC50 on Tyro3 and at Axl were 298 nM and 275 nM, respectively.
`CCCCNc1ncc(-c2cc(N)ncn2)c(N[C@H]2CC[C@H](O)CC2)n1` [UNC3072A]: the figures for the IC50 on Tyro3 and on Axl were 43 nM and 123 nM, respectively.
As to `CCCCNc1ncc(-c2cnc(SC)cn2)c(N[C@H]2CC[C@H](O)CC2)n1` [UNC3074A], the results for the IC50 on Tyro3 and at Axl were 255 nM and 754 nM, respectively.
The matching figures for `CCCCNc1ncc(-c2cc(NCC)ncn2)c(N[C@H]2CC[C@H](O)CC2)n1` [UNC3113A]: 77 nM and 255 nM.
The matching figures for `CCCCNc1ncc(-c2cncc(N3CCCC3)n2)c(N[C@H]2CC[C@H](O)CC2)n1` [UNC3115A]: 415 nM and 642 nM.
As for `CCCCNc1ncc(-c2cn(C)cn2)c(N[C@H]2CC[C@H](O)CC2)n1` [UNC3116A], the IC50 at Tyro3 came out at 3940 nM; on Axl, 10000 nM.
In the same order, the values of `CCCCNc1ncc(-c2cn(C(c3ccccc3)(c3ccccc3)c3ccccc3)cn2)c(N[C@H]2CC[C@H](O)CC2)n1` [UNC3117A] are 30000 nM and 30000 nM.
In the same order, the values of `CCCCNc1ncc(-c2nccnc2N)c(N[C@H]2CC[C@H](O)CC2)n1` [UNC3119A] are 9620 nM and 30000 nM.
For `CCCCNc1ncc(-c2ncc(CN3CCN(C)CC3)s2)c(N[C@H]2CC[C@H](O)CC2)n1` [UNC3121A], the IC50 was 71 nM at Tyro3 and 96 nM on Axl.
For the compound `CCCCNc1ncc(-c2cc(NC)ncn2)c(N[C@H]2CC[C@H](O)CC2)n1` [UNC3126A], the IC50 came out at 109 nM on Tyro3 and 364 nM on Axl.
For the compound `CCCCNc1ncc(-c2cc(SC)nc(C)n2)c(N[C@H]2CC[C@H](O)CC2)n1` [UNC3130A], the IC50 stood at 384 nM on Tyro3 and 1090 nM at Axl.
As for `CCCCNc1ncc(-c2ncc(C(N)=O)s2)c(N[C@H]2CC[C@H](O)CC2)n1` [UNC3134A], the IC50 on Tyro3 was 62 nM; on Axl, 146 nM.
`CCCCNc1ncc(-c2nc(CO)cs2)c(N[C@H]2CC[C@H](O)CC2)n1` [UNC3135A]: the IC50 on Tyro3 worked out at 165 nM; on Axl, 304 nM.
`CCCCNc1ncc(-c2nc(C(N)=O)cs2)c(N[C@H]2CC[C@H](O)CC2)n1` [UNC3136A]: the results for the IC50 on Tyro3 and at Axl were 76 nM and 237 nM, respectively.
As for `CCCCNc1ncc(-c2cncc(NC3CCCCC3)n2)c(N[C@H]2CC[C@H](O)CC2)n1` [UNC3137A], the IC50 on Tyro3 is 412 nM; at Axl, 1230 nM.
The matching figures for `CCCCNc1ncc(-c2cncc(N3CCOCC3)n2)c(N[C@H]2CC[C@H](O)CC2)n1` [UNC3138A]: 935 nM and 1250 nM.
The matching figures for `CCCCNc1ncc(-c2nc(C(=O)O)cs2)c(N[C@H]2CC[C@H](O)CC2)n1` [UNC3139A]: 2550 nM and 4540 nM.
The matching figures for `CCCCNc1ncc(-c2ncc(C)s2)c(N[C@H]2CC[C@H](O)CC2)n1` [UNC3140A]: 322 nM and 395 nM.
As for `CCCCNc1ncc(C(=O)NCc2ccc(Cn3ccnc3)cc2)c(N[C@H]2CC[C@H](O)CC2)n1` [UNC3144A], the figures for the IC50 at Tyro3 and at Axl were 360 nM and 487 nM, respectively.
The matching figures for `OCCCCNc1ncc(-c2nccs2)c(N[C@H]2CC[C@H](O)CC2)n1` [UNC3146A]: 1010 nM and 984 nM.
In the case of `CCCCNc1ncc(-c2nc(C(F)(F)F)cs2)c(N[C@H]2CC[C@H](O)CC2)n1` [UNC3149A], the IC50 at Tyro3 and at Axl was 30000 nM each time.
Turning to `CCCCNc1ncc(-c2cc(NC(=O)c3ccc(F)cc3)ncn2)c(N[C@H]2CC[C@H](O)CC2)n1` [UNC3182A], the IC50 on Tyro3 and at Axl was 30000 nM in each case.
With `CCCCNc1ncc(C(=O)NCc2ccc(-n3cnc(CO)c3)cc2)c(N[C@H]2CC[C@H](O)CC2)n1` [UNC3183A], the values for the IC50 on Tyro3 and on Axl were 372 nM and 703 nM, respectively.
In the case of `CCCCNc1ncc(-c2ncc(C(=O)O)s2)c(N[C@H]2CC[C@H](O)CC2)n1` [UNC3331A], the half-inhibitory concentration (IC50) at Tyro3 came to 95 nM; at Axl it was 414 nM.
On to `CCCCNc1ncc(-c2ccc(C3(N4CCOCC4)CC3)cn2)c(NC2CCC(O)CC2)n1` (stereo not shown) [UNC3664A], for which the IC50 at Tyro3 was 18 nM; at Axl, 93 nM.
The matching figures for `CCCCNc1ncc(-c2ccc(C3(N4CCOCC4)CCC3)cn2)c(NC2CCC(O)CC2)n1` (stereo not shown) [UNC3666A]: 11 nM and 52 nM.
In the same order, the values of `CCCCNc1ncc(-c2ccc(C3(N4CCOCC4)CCCC3)cn2)c(NC2CCC(O)CC2)n1` (stereo not shown) [UNC3667A] are 7.4 nM and 47 nM.
Turning to `CCCC1(Nc2ncc(-c3ccc(CN4CCN(C)CC4)cn3)c(NC3CCC(O)CC3)n2)CC1` (stereo not shown) [UNC3668A], the IC50 at Tyro3 was determined as 409 nM; at Axl, 5300 nM.
The matching figures for `CCCCNc1ncc(-c2ccc(CN3CCN[C@@H](C)C3)cn2)c(NC2CCC(O)CC2)n1` (stereo partly shown) [UNC4106A]: 22 nM and 47 nM.
In the same order, the values of `CCCCNc1ncc(-c2ccc(CN3C[C@H](C)NC[C@H]3C)cn2)c(NC2CCC(O)CC2)n1` (stereo partly shown) [UNC4109A] are 28 nM and 119 nM.
Take `CCCCNc1ncc(-c2ccc(CN3C[C@@H]4C[C@H]3CN4)cn2)c(NC2CCC(O)CC2)n1` (stereo partly shown) [UNC4112A]: the values for the IC50 on Tyro3 and at Axl were 19 nM and 32 nM, respectively.
The matching figures for `CCCCNc1ncc(-c2ccc(CN3CCN[C@H](C)C3)cn2)c(NC2CCC(O)CC2)n1` (stereo partly shown) [UNC4113A]: 18 nM and 55 nM.
With `CCCCNc1ncc(-c2ccc(CNC3CC4CCC(C3)N4C)cn2)c(N[C@H]2CC[C@H](O)CC2)n1` (stereo partly shown) [UNC4163A], the IC50 is 8.7 nM at Tyro3 and 20 nM on Axl.
Turning to `CCCCNc1ncc(-c2ccc(CNC3CC4CCC(C3)N4C)cn2)c(N[C@H]2CC[C@H](O)CC2)n1` (stereo partly shown) [UNC4165A], the figures for the IC50 on Tyro3 and on Axl were 8 nM and 18 nM, respectively.
The matching figures for `CCCCNc1ncc(-c2ccc(CNC34CC5CC(CC(C5)C3)C4)cn2)c(N[C@H]2CC[C@H](O)CC2)n1` [UNC4166A]: 9.4 nM and 13 nM.
On to `CCCCNc1ncc(-c2ccc(CN3C4CCCC3CC4)cn2)c(N[C@H]2CC[C@H](O)CC2)n1` [UNC4169A], for which the IC50 at Tyro3 was 3.9 nM; at Axl, 9.6 nM.
The matching figures for `O[C@H]1CC[C@H](Nc2nc(NCCC3CC3)ncc2-c2ccc(CN3CCCC3)cn2)CC1` [UNC4197A]: 24 nM and 43 nM.
On to `CCCCNc1ncc(-c2ccc(CCCN3CCCC3)cn2)c(N[C@H]2CC[C@H](O)CC2)n1` [UNC4220A], for which the IC50 on Tyro3 worked out at 68 nM; on Axl, 122 nM.
In the same order, the values of `CCCCNc1ncc(-c2ccc(CCN3CCCC3)cn2)c(N[C@H]2CC[C@H](O)CC2)n1` [UNC4221A] are 43 nM and 104 nM.
In the same order, the values of `CCCCNc1ncc(-c2cc(Cl)c(CN3CCCC3)cn2)c(N[C@H]2CC[C@H](O)CC2)n1` [UNC4222A] are 16 nM and 39 nM.
For the compound `CCCCNc1ncc(-c2cc(O)c(CN3CCCC3)cn2)c(N[C@H]2CC[C@H](O)CC2)n1` [UNC4230A], the figures for the IC50 on Tyro3 and at Axl were 734 nM and 1760 nM, respectively.
As to `CCCCNc1ncc(C(=O)NCc2ccc(-c3ccccc3)nc2)c(N[C@H]2CC[C@H](O)CC2)n1` [UNC4234A], the results for the IC50 on Tyro3 and on Axl were 195 nM and 470 nM, respectively.
On to `CCCCNc1ncc(C(=O)NCc2ccc(-c3ccc4ccccc4c3)nc2)c(N[C@H]2CC[C@H](O)CC2)n1` [UNC4235A], for which the IC50 at Tyro3 came out at 1270 nM; at Axl, 1800 nM.
The matching figures for `CCCCNc1ncc(C(=O)NCc2ccc(-c3cccnc3)nc2)c(N[C@H]2CC[C@H](O)CC2)n1` [UNC4236A]: 92 nM and 216 nM.
As to `CCCCNc1ncc(C(=O)NCc2ccc(-c3ccc(OC)cc3)nc2)c(N[C@H]2CC[C@H](O)CC2)n1` [UNC4238A], the IC50 at Tyro3 was determined as 242 nM; at Axl it was 698 nM.
In the same order, the values of `CCCCNc1ncc(C(=O)NCc2ccc(-c3ccc(C#N)cc3)nc2)c(N[C@H]2CC[C@H](O)CC2)n1` [UNC4239A] are 305 nM and 977 nM.
Consider `CCCCNc1ncc(C(=O)NCc2ccc(-c3cccc(OC)c3)nc2)c(N[C@H]2CC[C@H](O)CC2)n1` [UNC4246A], for which the IC50 on Tyro3 is 244 nM; at Axl it was 489 nM.
On to `CCCCNc1ncc(C(=O)NCc2ccc(-c3ccccc3OC)nc2)c(N[C@H]2CC[C@H](O)CC2)n1` [UNC4255A], for which the IC50 came to 156 nM on Tyro3 and 336 nM on Axl.
In the same order, the values of `CCCCNc1ncc(C(=O)NCc2ccc(C3=CCCCC3)nc2)c(N[C@H]2CC[C@H](O)CC2)n1` [UNC4256A] are 340 nM and 743 nM.
As for `CCCCNc1ncc(C(=O)NCc2ccc(-c3c(C)noc3C)nc2)c(N[C@H]2CC[C@H](O)CC2)n1` [UNC4260A], the IC50 was 256 nM at Tyro3 and 602 nM at Axl.
The matching figures for `CCCCNc1ncc(-c2cc(NC3CCCCCC3)ncn2)c(N[C@H]2CC[C@H](O)CC2)n1` [UNC4261A]: 380 nM and 579 nM.
For `CCCCNc1ncc(-c2cc(Nc3ccc(OC)cc3)ncn2)c(N[C@H]2CC[C@H](O)CC2)n1` [UNC4269A], the IC50 at Tyro3 turned out to be 234 nM; on Axl, 513 nM.
Turning to `CCCCNc1ncc(-c2cc(Nc3cccc(OC)c3)ncn2)c(N[C@H]2CC[C@H](O)CC2)n1` [UNC4270A], the results for the IC50 at Tyro3 and on Axl were 121 nM and 158 nM, respectively.
With `CCCCNc1ncc(-c2cc(Nc3ccccc3OC)ncn2)c(N[C@H]2CC[C@H](O)CC2)n1` [UNC4272A], the results for the IC50 at Tyro3 and at Axl were 194 nM and 12300 nM, respectively.
In the same order, the values of `CCCCNc1ncc(-c2ccc(CCN3CCCN(C)CC3)cn2)c(N[C@H]2CC[C@H](O)CC2)n1` [UNC4279A] are 42 nM and 67 nM.
Regarding `CCCCNc1ncc(C(=O)NCc2ccc3ccccc3n2)c(N[C@H]2CC[C@H](O)CC2)n1` [UNC4286A], the IC50 at Tyro3 amounted to 253 nM; on Axl, 572 nM.
